The target in test [1] is T1, Cathepsin B (Homo sapiens, UniProt P07858). Nature of the test: Competitive binding affinity to cathepsin B in wild type human Jurkat cell lysate assessed as PMA/ionomycin stimulated ABP labeling by protein-compound adduct formation at 3 uM pretreated with 25 uM of MALT1 inhibitor z-VRPR-FMK for 2 hrs followed by PMA/ionomycin stimulation for 30 mins and subsequent compound addition measured after 3 hrs by Western blot analysis. The test is classed as subcellular.

Test [2] deals with T1, Cathepsin B. Put plainly: Inhibition of recombinant human cathepsin B expressed in Escherichia coli BL21 (DE3) assessed as inactivation rate constant using zRR-AMC as substrate measured after 2 hrs by fluorescence plate reader assay.
The target of test [3] is T2, Mucosa-associated lymphoid tissue lymphoma translocation protein 1 (Homo sapiens, UniProt Q9UDY8).
T2 sequence (Q9UDY8 whole entry): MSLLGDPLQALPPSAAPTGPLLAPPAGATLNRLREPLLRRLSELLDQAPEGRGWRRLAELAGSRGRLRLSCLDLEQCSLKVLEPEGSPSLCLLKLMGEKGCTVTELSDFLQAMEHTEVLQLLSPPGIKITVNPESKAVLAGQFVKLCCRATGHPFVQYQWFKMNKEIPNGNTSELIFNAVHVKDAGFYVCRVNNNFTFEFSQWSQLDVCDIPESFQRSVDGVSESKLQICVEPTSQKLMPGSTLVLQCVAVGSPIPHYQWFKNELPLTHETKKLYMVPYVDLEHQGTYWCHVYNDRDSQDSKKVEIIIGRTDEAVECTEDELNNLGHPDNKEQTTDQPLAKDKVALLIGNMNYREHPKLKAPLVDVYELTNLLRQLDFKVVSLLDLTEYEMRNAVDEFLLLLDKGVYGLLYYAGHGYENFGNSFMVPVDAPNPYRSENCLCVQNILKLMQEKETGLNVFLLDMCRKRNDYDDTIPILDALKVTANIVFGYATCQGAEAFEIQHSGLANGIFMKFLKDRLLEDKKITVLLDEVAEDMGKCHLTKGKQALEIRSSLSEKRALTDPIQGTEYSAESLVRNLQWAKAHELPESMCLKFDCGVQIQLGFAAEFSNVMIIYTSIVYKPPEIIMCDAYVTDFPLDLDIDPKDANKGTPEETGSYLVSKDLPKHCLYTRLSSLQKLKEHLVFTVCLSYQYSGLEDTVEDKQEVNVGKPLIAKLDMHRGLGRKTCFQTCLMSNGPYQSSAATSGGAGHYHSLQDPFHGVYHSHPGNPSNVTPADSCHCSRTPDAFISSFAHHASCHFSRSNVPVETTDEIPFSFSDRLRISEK
Put plainly: Inhibition of […] wild type human N-terminal GST-tagged MALT1 catalytic domain (325 to 760 residues) expressed in Escherichia coli BL21 (DE3) using Ac-LVPipR-ACC as substrate measured after 2 hrs by microplate reader assay.

The target of test [4] is T3, Mucosa-associated lymphoid tissue lymphoma translocation protein 1 (Homo sapiens) (UniProt Q9UDY8).
T3 sequence (whole entry): T2 sequence (Q9UDY8 whole entry)
Nature of the test: Inhibition of […] wild type human N-terminal GST-tagged MALT1 catalytic domain (325 to 760 residues) expressed in Escherichia coli BL21 (DE3) assessed as inactivation rate constant using Ac-LVPipR-ACC as substrate measured after 2 hrs by microplate reader assay.

The species named for test [5] is Homo sapiens. Nature of the test: Covalent binding affinity to MALT1 C453/A mutant (unknown origin) assessed as PMA/ionomycin stimulated ABP labeling of MALT1 by measuring cleavage of CYLD substrate using CYLD as substrate at 3 uM pretreated with PMA/ionomycin for 30 mins followed by compound treatment and further incubated for 3 hrs by Western blot analysis. (In western blotting, separated proteins are transferred to a membrane and probed.)

The target of test [6] is T1, Cathepsin B. Put plainly: Inhibition of recombinant human cathepsin B expressed in Escherichia coli BL21 (DE3) assessed as increase in fluorescence at 0.5 uL using zRR-AMC as substrate measured after 60 to 80 mins by fluorescence plate reader assay.
The target in test [7] is T3, Mucosa-associated lymphoid tissue lymphoma translocation protein 1 (Homo sapiens). Nature of the test: Covalent binding affinity to MALT1 in wild type human Jurkat cell lysate assessed as PMA/ionomycin stimulated ABP labeling by protein-compound adduct formation at 3 uM pretreated with PMA/ionomycin for 30 mins followed by compound treatment after 3 hrs by laser imaging analysis. Type of test: subcellular.

Test [8] shares this target. Nature of the test: Inhibition of full length wild type human N-terminal GST-tagged MALT1 catalytic domain (325 to 760 residues) expressed in Escherichia coli BL21 (DE3) assessed as increase in fluorescence at 0.5 uL using Ac-LRSR-AMC as substrate preincubated for 20 mins followed by substrate addition measured after 60 to 120 mins by fluorescence plate reader assay.

The target in test [9] is T1, Cathepsin B. Put plainly: Covalent binding affinity to cathepsin B in wild type human Jurkat cell lysate assessed as ABP labeling by protein-compound adduct formation at 3 uM after 3 hrs by laser imaging analysis. Type of test: subcellular.
For test [10], the target named is T1, Cathepsin B. Nature of the test: Binding affinity to cathepsin B in human Jurkat cells assessed as ABP labeling of protein at 3 uM pretreated with compound for 3 hrs followed by PMA/ionomycin stimulation for 30 mins by laser imaging analysis. Type of test: cell-based.
The target in test [11] is T3, Mucosa-associated lymphoid tissue lymphoma translocation protein 1 (Homo sapiens). Nature of the test: Binding affinity to MALT1 in human Jurkat cells assessed as ABP labeling of protein at 3 uM pretreated with compound for 3 hrs followed by PMA/ionomycin stimulation for 30 mins by laser imaging analysis. The test is classed as cell-based.
Test [12] shares this target. Nature of the test: Competitive binding affinity to MALT1 in wild type human Jurkat cell lysate assessed as PMA/ionomycin stimulated ABP labeling by protein-compound adduct formation at 3 uM pretreated with 25 uM of MALT1 inhibitor s-mepazine for 2 hrs followed by PMA/ionomycin stimulation for 30 mins and subsequent compound addition measured after 3 hrs by Western blot analysis. The test is classed as subcellular.

Test [13] deals with T1, Cathepsin B. Nature of the test: Competitive binding affinity to cathepsin B in wild type human Jurkat cell lysate assessed as PMA/ionomycin stimulated ABP labeling by protein-compound adduct formation at 3 uM pretreated with 5 uM of MALT1 inhibitor CA-074ME for 2 hrs followed by PMA/ionomycin stimulation for 30 mins and subsequent compound addition measured after 3 hrs by Western blot analysis. The test is classed as subcellular.

Test [14] addresses T3, Mucosa-associated lymphoid tissue lymphoma translocation protein 1 (Homo sapiens). Nature of the test: Inhibition of MALT1 in human HBL1 assessed as assessed as reduction in Relb substrate cleavage after 5 hrs in presence of proteasome inhibitor by Western blot analysis.
The target of test [15] is T1, Cathepsin B. Nature of the test: Inhibition of recombinant human cathepsin B expressed in Escherichia coli BL21 (DE3) using zRR-AMC as substrate measured after 2 hrs by fluorescence plate reader assay.
The target of test [16] is T3, Mucosa-associated lymphoid tissue lymphoma translocation protein 1 (Homo sapiens). Nature of the test: Competitive binding affinity to MALT1 in wild type human Jurkat cell lysate assessed as PMA/ionomycin stimulated ABP labeling by protein-compound adduct formation at 3 uM pretreated with 25 uM of MALT1 inhibitor z-VRPR-FMK for 2 hrs followed by PMA/ionomycin stimulation for 30 mins and subsequent compound addition measured after 3 hrs by Western blot analysis. Type of test: subcellular.

For test [17] the target is unchanged. Put plainly: Covalent binding affinity to Streptag2-tagged MALT1 stably reconstituted in human knockout Jurkat cells assessed as PMA/ionomycin stimulated ABP labeling of MALT1 by measuring cleavage of CYLD substrate using CYLD as substrate at 3 uM pretreated for PMA/ionomycin with 30 mins followed by compound treatment and further incubated for 3 hrs by Western blot analysis. The test is classed as cell-based.

The target is the same in test [18]. Put plainly: Inhibition of MALT1 in human HBL1 assessed as assessed as reduction in Relb substrate cleavage at 3 to 30 uM after 5 hrs in presence of proteasome inhibitor by Western blot analysis.
The target in test [19] is T1, Cathepsin B. Nature of the test: Inhibition of recombinant human cathepsin B expressed in Escherichia coli BL21 (DE3) assessed as increase in fluorescence at 0.5 uL using zRR-AMC as substrate measured after 60 to 80 mins by fluorescence plate reader assay relative to Z-VRPR-FMK.

Activity calls are given as the source filed them. No cut-off for these calls is given here. Bounds are passed on as bounds.

This is an account of results in ChEMBL document CHEMBL4354872, “Use of Non-Natural Amino Acids for the Design and Synthesis of a Selective, Cell-Permeable MALT1 Activity-Based Probe” (J Med Chem, 2020).

Usually Ki stands for the dissociation constant of the complex between target and ligand, obtained from inhibition or displacement. On to `CC1=CC(C)=[N+]2C1=C(CCCc1cn(CCCCCC(=O)N[C@@H](CC(C)C)C(=O)N[C@H](C(=O)N[C@@H](CO)C(=O)N[C@@H](CCCNC(=N)N)C(=O)COC(=O)c3c(C)cccc3C)C(C)C)nn1)c1c(C)cc(C)n1[B-]2(F)F`, for which the result in test [1], in test [5], in test [12], in test [13] and in [16] was inactive. The Kinact in test [2] came to 4.1 ×10⁻³ /s; in test [4], 1.1 ×10⁻³ /s. Further, the Ki in test [3] and in [15] was 0.21 µM in each case. The inhibition entry in test [6] and in test [8] was “Active” throughout. Further, the outcome in test [7], in test [9], in test [10], in test [11] and in test [17] was Active. Moreover, in test [14], the inhibition result is “Dose-dependent effect”.
For `CC1=CC(C)=[N+]2C1=Cc1ccc(CCC(=O)N[C@@H](CC(C)C)C(=O)N[C@@H](CCCNC(=N)N)C(=O)N[C@@H](CO)C(=O)N[C@@H](CCCNC(=N)N)C(=O)COC(=O)c3c(C)cccc3C)n1[B-]2(F)F`, the Kinact is 9.6 ×10⁻³ /s in test [2] and 2 ×10⁻³ /s in test [4]. For the same compound, the Ki in test [3] stood at 0.34 µM; in [15], 0.63 µM. Also, the result in test [5] was inactive. Moreover, the inhibition entry in test [6] and in test [8] was “Active” throughout. Besides, the outcome in [7], in test [9], in [10], in test [11] and in [17] was Active. The inhibition entry in [18] is “inactive”.
Take `CC1=CC(C)=[N+]2C1=C(CCCc1cn(CCCCCC(=O)N[C@@H](CC(C)C)C(=O)N[C@H](C(=O)N3CCCC[C@H]3C(=O)N[C@@H](CCCNC(=N)N)C(=O)COC(=O)c3c(C)cccc3C)C(C)C)nn1)c1c(C)cc(C)n1[B-]2(F)F`: the Ki is 0.17 µM in test [3] and more than 10 µM in test [15]. In test [4], the Kinact is 1.7 ×10⁻³ /s. Further, the result in test [5], in test [9], in [10] and in test [11] was inactive. Besides, the inhibition entry in [6] and in test [8] was “Active” throughout. Besides, the outcome in [7] and in test [17] was Active. The fold change (FC) in test [19] amounted to 50. The inhibition result in test [14] was “Dose-dependent effect”.
Consider `CC(C)[C@H](NC(=O)OCc1ccccc1)C(=O)N[C@@H](CCCNC(=N)N)C(=O)N1CCC[C@H]1C(=O)N[C@@H](CCCNC(=N)N)C(=O)CF`, for which the inhibition result in test [6] and in test [8] was “Active” each time.
